In article PMC12051620, “Molecular basis underlying the specificity of an antagonist AA92593 for mammalian melanopsins” (The Journal of Biological Chemistry, 2025):

Test system: jumping spider rhodopsin-1 WT
Experiment: GsX GloSensor assay with Gsα/q11
Assay type: cell-based
Conditions: 16.7 μM AA92593, COS-1 cells
Description: We next tested the effect of AA92593 on jumping spider rhodopsin-1, a Gq-coupled visual opsin but not melanopsin (see Figs. 2, S2, and S3) ([41]). Similar to non-mammalian-type and invertebrate melanopsins, jumping spider rhodopsin-1 was not sensitive to AA92593 as assessed using the GsX GloSensor assay (Fig. 7L). […] The introduction of I189^ECL2W/Y207^5.42F impaired the light-dependent cAMP responses even in the absence of AA92593 (Fig. S11). Taken together, the non-melanopsin Gq-coupled opsin cannot be functionally converted to an AA92593-sensitive type by site-directed mutagenesis, in contrast to non-mammalian-type and invertebrate melanopsins. […]
For GloSensor assay, opsins, GloSensor assay sensor (coded by pGlo-22F), and NanoBiT-tagged G proteins were transiently expressed in COS-1 cells (kindly provided from Dr David Farrens, Oregon Health and Science University) using PEI as described previously ([24], [52]). […] For GFP-fluorescence microscopy, a 35-mm cell culture dish (IWAKI) was transfected with 2 μg melanopsin-GFP plasmid and 8 μg PEI in 400 μl Opti-mem and 1.2 ml D-MEM. […]

## COc1ccc(S(=O)(=O)N2CCCCC2)cc1C [AA92593]
  sensitivity to AA92593: not sensitive
